Earlier results on 1 molecule are cited in patent US20050058670A1, “Oral itraconazole composition which is not affected by ingested food and process for preparing same” (priority 2003, published 2005).

For the molecule `CCC(C)n1ncn(-c2ccc(N3CCN(c4ccc(OCC5COC(Cn6cncn6)(c6ccc(Cl)cc6Cl)O5)cc4)CC3)cc2)c1=O` (stereo not shown) [Itraconazole], the solubility in water entry is listed as “less than 1 μg/ml”.
